Test results as given in patent US10479814B2, “Adenosine receptor activation reagent and the uses of thereof” (Zhejiang Subtropical Crops Research Institute, priority 2014, dated 2019).
“Also recorded” adds a separate entry of the source.

Assays:
Assay type in all cases: in vivo
[1] = tested on: pentylenetetrazole induced convulsion; experiment: pentylenetetrazole induced convulsion in mouse
Experimental: Male ICR mouse, 18˜22 g; purchased from Animal Experiment Center of Wenzhou Medical University. Before experiment, animals were adapted to environment for at least 5 days. Kept at 25 °C, food and water were freely fed. Based on the weight, the healthy male ICR mice were randomly divided into control group (1% DMSO, ip), model group, CCPA group (0.1 mg·kg^−1, ip), HEA group (15 mg/kg, 40 mg/kg, 60 mg/kg), DPCPX group (2 mg·kg^−1, ip), ZM241385 group (1 mg·kg^−1, 5 mg·kg^−1, ip), DPCPX+HEA (2 mg·kg^−1+40 mg/kg, ip) group and ZM241385+HEA (1 mg·kg^−1+40 mg/kg, 5 mg·kg^−1+40 mg/kg ip) group.
The survival time and mortality after convulsion were respectively recorded for each group.

[2] = tested on: rat middle cerebral artery distal obstruction cerebral ischemia model; experiment: dMCAO cerebral ischemia: brain histomorphological staining HE
Experimental: Using rat middle cerebral artery distal obstruction cerebral ischemia model. (1) according to rat weight, 10% chloral hydrate (3 ml/kg) was peritoneally injected to anaesthetize. (2) the rat lie on right side and fixed, 1 cm skin incision was cut at connection of inner canthus with external canal, fascia was isolated, muscle tissue, the skull was exposed; (3) a small amount of normal saline was sucked with cotton ball to wipe the skull to ac clear view; (4) fascia was isolated under operating microscope, and the skull was exposed, a hole with diameter of 2 mm circular was drilled at a sute 1/3 of spine; (5) the excess bone debris was washed by a small amount of normal saline, the meninge was push aside, and the middle cerebral artery MCA was exposed; (6) the rat lie in supine position and fixed, an incision was made along middle of throat, and arteria carotis communis CCA on both sides were isolate, pass through with a surgical suture, not ligated temporarily; (7) the MCA was found under operating microscope, burned by a monopolar coagulator, then wash and colled with normal saline; (8) immediately after coagulation, the arteria carotis communis on both sides was ligated, and blocked for 60 min; (9) the wound on head was stitched, after 1 hour the arteria carotis communis on both sides was […], and the skin was stitched, thus the modeling was complete. […]

[3] = tested on: mouse spontaneous activity; experiment: mouse spontaneous activity (sedation)
Experimental: Male ICR mice were randomly divided into four groups, and adenosine A1R antagonist DPCPX was selected. The mice were divided into solvent group, HEA (15 mg/kg) group, DPCPX (4 mg/kg) and DPCPX+HEA (4 mg/kg+15 mg/kg) group; wherein in DPCPX+HEA group, the mice was peritonealelly injected with the antagonist, after 10 min the HEA was peritoneally injected. After 15 min of drug administration, the mice were put into a single opaque square spontaneous activity box (50 cm×50 cm×40 cm), and foot grating number within 5 min was recorded by video camera. Calculating on the basis of four limbs of the mouse entering the same lattice, as the activity index of the animal.

[4] = tested on: TNF-α mRNA in mouse renal cortex; experiment: kidney ischemia reperfusion: real time quantitative PCR of TNF-α; details: vs IR group; HEA 5, 7.5, 10 mg/kg; DPCPX 1 mg/kg; DPCPX 1 mg/kg+HEA
Experimental: Male C57BL/6 mice 20-25 g, after one week of adaptive feeding to the animals, were randomly divided into eight groups: sham-operation group, IR group, HEA 5 mg/kg group, HEA 7 mg/kg group, HEA 10 mg/kg group, DPCPX (1 mg/kg) group, DPCPX (1 mg/kg)+HEA (5 mg/kg) group and DPCPX (1 mg/kg)+HEA (7.5 mg/kg) group. […]
The MPO analysis was conducted according to the specification in the kit. 9.2.6 Real time quantitative PCR analysis of gene expression of ICAM-1, TNF-α and IL-1β; the sequence of primer used in RT-PCR reaction system is as follow:
PCR amplification reaction system: IQ SYBR Green Super mix 12.5 μL, Forward primer (10 μmo/L) 1 μL, Reverse primer (10 μmol/L) 1 μL, cDNA (water was added to dilute to same level) 10.5 μL. […] The statistics and calculation of experiment results was automatically conducted fluorescence quantitative PCR analyzing software BIO-RAD CFX Manager. Target gene mRNA expression level was calculated by 2-ΔΔCt method, and standardized using the GAPDH mRNA in corresponding specimen a standard.

SMILES	effect of antagonist on the anti-convulsion action of the HEA ([1]; antagonist ip 10 min before HEA 40 mg/kg, DPCPX 2 mg/kg, ZM241385 1 and 5 mg/kg)	effect of DPCPX on brain protective effect of HEA (HE staining) ([2]; DPCPX 1 mg/kg ip + HEA 7.5 mg/kg ip)	effect of DPCPX on sedation of the HEA ([3]; DPCPX 4 mg/kg ip 10 min before HEA 15 mg/kg)	TNF-α mRNA expression in renal cortex [4]	survival time after convulsion ([1]; HEA 40 mg/kg ip, pentylenetetrazole 100 mg/kg ip, vs control group)	mortality of mouse convulsion ([1]; HEA 40 mg/kg, pentylenetetrazole 100 mg/kg ip)	brain histomorphology (HE staining) ([2]; dMCAO rat, HEA 7.5 mg/kg ip, vs model group)	spontaneous activity number within 5 min ([3]; normal mouse, HEA 15 mg/kg ip, 15 min after administration, vs solvent group)
CCCn1c(=O)c2[nH]c(C3CCCC3)nc2n(CCC)c1=O [DPCPX, reference compound]	significantly inhibit the anti-convulsion effect of the HEA; also recorded: significantly reduce the anti-convulsion effect of the HEA	blocking the brain protective effect of the HAE	sedation of the HEA is significantly antagonized	significantly increase				
OCCNc1ncnc2c1ncn2[C@@H]1O[C@H](CO)[C@@H](O)[C@H]1O [HEA, N(6)-(2-hydroxyethyl)-adenosine]				significantly reduce the high expression	significantly extend the survival time	very significantly reduce the mortality	reduce the cerebral cortex tissue structure loosening caused by ischemia; also recorded: improve cell swelling degree and nuclear aberration, and increases cell number	significant; also recorded: significantly reduce spontaneous activity number of normal mouse within 5 min
